Measurements as given in ChEMBL document CHEMBL1148144, “Horiolide, a novel norditerpenoid from Indian ocean soft coral of the genus Sinularia” (J Nat Prod, 2002).
Active and inactive are the calls of the source.

Assays:
Format in all cases: functional, organism-based
Chlorella sorokiniana = test: Antialgal activity against Chlorella sorokiniana
Chlorella vulgaris = test: Antialgal activity against Chlorella vulgaris
Staphylococcus aureus = test: Antibacterial activity against Staphylococcus aureus
Escherichia coli = test: Antibacterial activity against Escherichia coli
Rhizomucor miehei = test: Antifungal activity against Mucor miehei
Chlorella salina = test: Antialgal activity against Chlorella salina
Bacillus subtilis = test: Antibacterial activity against Bacillus subtilis

Measured: Activity

C=C(C)[C@@H]1CC(=O)[C@H]2[C@H](C1)[C@@H]1C(=O)O[C@H]3[C@@H]1CC(=O)[C@H]2[C@H]3C(C)=O
inactive: all assays above
